According to article PMC11606603, “The membrane domains of mammalian adenylyl cyclases are lipid receptors” (eLife, 2024):
“And” between values parts separate entries of the source, which are not always exact repeats. Identical values can stand only once.

Key:
Type in all cases: biochemical
[1] = molecular target: T1, mAC6 (Homo sapiens, UniProt O43306); test: AC assay, Gsα-stimulated mAC6 in membranes from transfected HEK293 cells; details: 20µM fatty acid concentration
T1 construct: Human mAC genes were from GenScript and fitted with a C-terminal FLAG-tag; FLAG (C); made in house; host or cells: HEK293, permanently transfected; membrane preparation
Protocol: (§1) hAC sequences were from NCBI were: ADCY1: NM_021116.3; ADCY2: NM_020546.2; ADCY3: NM_004036.4; ADCY4: NM_001198568.2; ADCY5: NM_183357.2; ADCY6: NM_015270.4; ADCY7: NM_001114.4; ADCY8: NM_001115.2; ADCY9: NM_001116.3. Human mAC genes were from GenScript and fitted with a C-terminal FLAG-tag. […] The gene was synthesized by GenScript. HEK293 cells were maintained in Dulbeccos Modified Eagle Medium (DMEM) with 10% fetal bovine serum at 37°C and 5% CO2. Transfection with AC plasmids was with PolyJet (SignaGen, Frederick, MD, USA). Permanent cell lines were generated by selection for 7 days with 600 µg/ml G418 and maintained with 300 µg/ml For membrane preparation, cells were tyrpsinized, collected by centrifugation (3000 × g, 5 min) and lysed and homogenized in 20 mM HEPES, pH 7.5, 1 mM Ethylenediaminetetraacetic acid (EDTA), 2 mM MgCl2, 1 mM Dithiothreitol (DTT), one tablet of cOmplete, EDTA-free (per 50 ml) and 250 mM sucrose by 20 strokes in a potter homogenizer on ice. Debris was removed (5 min at 1000 × g, 0°C), membranes were collected at 100,000 × g, 60 min at 0°C, suspended and stored at −80°C in 20 mM MOPS, pH 7.5, 0.5 mM EDTA, 2 mM MgCl2. […] Three cerebral cortices were dissected and homogenized in 4.5 ml cold 48 mM Tris–HCl, pH 7.4, 12 mM MgC1_2, and 0.1 mM Ethylene glycol-bis(β-aminoethyl ether)-N,N,N′,N′-tetraacetic acid (EGTA) with a Polytron hand disperser (Kinematica AG, Switzerland). […] The pellet was washed once with 5 ml 1 mM KHCO3. The final suspension in 2 ml 1 mM KHCO3 was stored in aliquots at −80°C.
(§2) In a volume of 10 μl, AC activities were measured using 1 mM ATP, 2 mM MgCl2, 3 mM creatine phosphate, 60 μg/ml creatine kinase, and 50 mM MOPS pH 7.5. The cAMP assay kit from Cisbio (Codolet, France) was used for detection according to the supplier’s instructions. For each assay, a cAMP standard curve was established. EC50 and IC50 values were calculated by GraphPad Prism version 8.4.3 for Windows, GraphPad Software, San Diego, CA, USA, https://www.graphpad.com .

[2] = molecular target: T2, mAC4 (Homo sapiens, UniProt Q8NFM4); test: AC assay, Gsα-stimulated mAC4 in membranes from transfected HEK293 cells; details: for mAC4 activity [%] (100% = 300nM Gsα stimulation); 20µM fatty acid concentration: single experiments
T2 construct: Human mAC genes were from GenScript and fitted with a C-terminal FLAG-tag; FLAG (C); made in house; host or cells: HEK293, permanently transfected; membrane preparation
T2 sequence (Q8NFM4 1-1077): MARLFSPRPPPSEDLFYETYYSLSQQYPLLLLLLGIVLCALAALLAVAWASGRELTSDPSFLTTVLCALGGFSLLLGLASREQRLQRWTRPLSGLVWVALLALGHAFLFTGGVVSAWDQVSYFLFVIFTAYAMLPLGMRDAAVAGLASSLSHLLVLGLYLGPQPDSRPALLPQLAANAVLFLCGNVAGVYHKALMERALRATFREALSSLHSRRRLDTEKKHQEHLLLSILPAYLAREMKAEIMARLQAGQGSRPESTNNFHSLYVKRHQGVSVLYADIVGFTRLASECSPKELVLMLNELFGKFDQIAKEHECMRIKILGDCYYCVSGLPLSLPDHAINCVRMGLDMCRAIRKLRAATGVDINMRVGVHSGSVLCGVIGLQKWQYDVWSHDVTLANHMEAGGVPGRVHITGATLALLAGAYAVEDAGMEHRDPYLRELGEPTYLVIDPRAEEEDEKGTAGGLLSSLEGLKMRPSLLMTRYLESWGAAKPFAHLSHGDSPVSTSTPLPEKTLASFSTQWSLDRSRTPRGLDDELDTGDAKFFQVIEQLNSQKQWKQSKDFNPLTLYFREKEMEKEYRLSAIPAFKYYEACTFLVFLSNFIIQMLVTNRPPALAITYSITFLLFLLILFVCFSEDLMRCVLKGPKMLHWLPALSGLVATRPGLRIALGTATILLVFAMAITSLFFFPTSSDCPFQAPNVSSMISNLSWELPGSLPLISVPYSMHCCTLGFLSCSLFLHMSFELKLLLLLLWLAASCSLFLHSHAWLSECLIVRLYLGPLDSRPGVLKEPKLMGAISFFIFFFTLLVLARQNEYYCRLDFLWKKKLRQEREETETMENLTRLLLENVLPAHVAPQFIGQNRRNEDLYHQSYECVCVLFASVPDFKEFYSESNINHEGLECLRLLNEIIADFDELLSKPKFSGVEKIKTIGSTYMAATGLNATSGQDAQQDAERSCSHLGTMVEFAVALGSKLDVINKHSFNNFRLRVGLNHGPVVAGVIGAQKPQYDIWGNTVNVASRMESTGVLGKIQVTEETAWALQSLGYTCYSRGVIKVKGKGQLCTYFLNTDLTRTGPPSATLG
Protocol: as §1, §2

[3] = molecular target: T3, mAC5 (Homo sapiens, UniProt O95622); test: AC assay, Gsα-stimulated mAC5 in membranes from transfected HEK293 cells
T3 construct: Human mAC genes were from GenScript and fitted with a C-terminal FLAG-tag; FLAG (C); made in house; host or cells: HEK293, permanently transfected; membrane preparation
Protocol: as §1, §2

[4] = molecular target: T4, mAC3 (Homo sapiens, UniProt O60266); test: AC assay, Gsα-stimulated mAC3 in membranes from transfected HEK293 cells; details: for Effect of lipid on 300 nM Gsα-stimulated mAC3: 20 µM, in words; for mAC3 activity [%] (100% = 300nM Gsα stimulation): individual experiments
T4 construct: Human mAC genes were from GenScript and fitted with a C-terminal FLAG-tag; FLAG (C); made in house; host or cells: HEK293, permanently transfected; membrane preparation
Protocol: as §1, §2

[5] = molecular target: T5, mAC1 (Homo sapiens, UniProt Q08828); test: AC assay, Gsα-stimulated mAC1 in membranes from transfected HEK293 cells; details: for mAC1 activity [%] (100% = 300nM Gsα stimulation); 20µM fatty acid concentration: single experiments
T5 construct: Human mAC genes were from GenScript and fitted with a C-terminal FLAG-tag; FLAG (C); made in house; host or cells: HEK293, permanently transfected; membrane preparation
Protocol: as §1, §2

[6] = molecular target: T6, mAC2 (Homo sapiens, UniProt Q08462); test: AC assay, Gsα-stimulated mAC2 in membranes from transfected HEK293 cells; details: Figure 5-figure supplement 1 left, 20 µM
T6 construct: Human mAC genes were from GenScript and fitted with a C-terminal FLAG-tag; FLAG (C); made in house; host or cells: HEK293, permanently transfected; membrane preparation
Protocol: as §1, §2

[7] = molecular target: T7, mAC7 (Homo sapiens, UniProt P51828); test: AC assay, Gsα-stimulated mAC7 in membranes from transfected HEK293 cells; details: for mAC7 activity [%] (100% = 300nM Gsα stimulation); 20µM fatty acid concentration: Figure 5-figure supplement 2 left
T7 construct: Human mAC genes were from GenScript and fitted with a C-terminal FLAG-tag; FLAG (C); made in house; host or cells: HEK293, permanently transfected; membrane preparation
Protocol: as §1, §2

[8] = molecular target: T8, mAC9 (Homo sapiens, UniProt O60503); test: AC assay, Gsα-stimulated mAC9 in membranes from transfected HEK293 cells; details: for mAC9 activity (%);(100% = Gsα stimulation) stimulated by 300nM Gsα / mAC9 activity [%] (100% = 300nM Gsα stimulation); 20µM fatty acid concentration: single experiments; for EC50: enhancement of 300 nM Gsα-stimulated activity, read-out: EC50 for mAC9
T8 construct: Human mAC genes were from GenScript and fitted with a C-terminal FLAG-tag; FLAG (C); made in house; host or cells: HEK293, permanently transfected; membrane preparation
Protocol: as §1, §2

[9] = enhancement of 300 nM Gsα-stimulated activity

T1 sequence (O43306 whole entry): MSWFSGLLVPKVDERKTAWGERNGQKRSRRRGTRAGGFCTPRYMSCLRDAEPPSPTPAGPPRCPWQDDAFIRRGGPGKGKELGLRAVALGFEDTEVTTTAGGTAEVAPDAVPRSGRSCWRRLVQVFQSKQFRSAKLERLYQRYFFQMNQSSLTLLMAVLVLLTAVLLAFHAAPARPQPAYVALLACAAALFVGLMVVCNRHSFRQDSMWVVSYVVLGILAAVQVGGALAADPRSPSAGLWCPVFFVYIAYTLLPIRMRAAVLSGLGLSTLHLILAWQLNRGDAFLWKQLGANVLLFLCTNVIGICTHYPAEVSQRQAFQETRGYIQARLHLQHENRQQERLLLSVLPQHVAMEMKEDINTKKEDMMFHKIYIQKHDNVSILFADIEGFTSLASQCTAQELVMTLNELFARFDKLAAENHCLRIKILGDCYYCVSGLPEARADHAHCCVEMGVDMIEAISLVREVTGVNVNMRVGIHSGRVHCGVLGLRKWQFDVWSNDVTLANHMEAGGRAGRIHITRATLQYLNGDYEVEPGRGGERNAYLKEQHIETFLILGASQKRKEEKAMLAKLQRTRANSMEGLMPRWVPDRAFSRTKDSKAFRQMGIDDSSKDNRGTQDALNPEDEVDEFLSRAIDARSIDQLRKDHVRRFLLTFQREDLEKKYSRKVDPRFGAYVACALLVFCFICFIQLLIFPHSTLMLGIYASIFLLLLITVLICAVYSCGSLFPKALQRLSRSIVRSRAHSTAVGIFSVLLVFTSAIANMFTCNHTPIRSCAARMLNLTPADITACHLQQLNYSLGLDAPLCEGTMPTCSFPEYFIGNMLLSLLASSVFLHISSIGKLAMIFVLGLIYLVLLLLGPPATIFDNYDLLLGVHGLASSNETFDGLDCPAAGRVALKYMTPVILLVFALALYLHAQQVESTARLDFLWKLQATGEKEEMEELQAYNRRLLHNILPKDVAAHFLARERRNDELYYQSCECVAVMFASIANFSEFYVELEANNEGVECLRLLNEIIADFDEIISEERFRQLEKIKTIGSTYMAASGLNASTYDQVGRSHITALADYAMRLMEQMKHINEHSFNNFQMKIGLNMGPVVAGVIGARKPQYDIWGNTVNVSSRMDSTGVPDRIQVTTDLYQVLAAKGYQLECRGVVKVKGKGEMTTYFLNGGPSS
T5 sequence (Q08828 whole entry): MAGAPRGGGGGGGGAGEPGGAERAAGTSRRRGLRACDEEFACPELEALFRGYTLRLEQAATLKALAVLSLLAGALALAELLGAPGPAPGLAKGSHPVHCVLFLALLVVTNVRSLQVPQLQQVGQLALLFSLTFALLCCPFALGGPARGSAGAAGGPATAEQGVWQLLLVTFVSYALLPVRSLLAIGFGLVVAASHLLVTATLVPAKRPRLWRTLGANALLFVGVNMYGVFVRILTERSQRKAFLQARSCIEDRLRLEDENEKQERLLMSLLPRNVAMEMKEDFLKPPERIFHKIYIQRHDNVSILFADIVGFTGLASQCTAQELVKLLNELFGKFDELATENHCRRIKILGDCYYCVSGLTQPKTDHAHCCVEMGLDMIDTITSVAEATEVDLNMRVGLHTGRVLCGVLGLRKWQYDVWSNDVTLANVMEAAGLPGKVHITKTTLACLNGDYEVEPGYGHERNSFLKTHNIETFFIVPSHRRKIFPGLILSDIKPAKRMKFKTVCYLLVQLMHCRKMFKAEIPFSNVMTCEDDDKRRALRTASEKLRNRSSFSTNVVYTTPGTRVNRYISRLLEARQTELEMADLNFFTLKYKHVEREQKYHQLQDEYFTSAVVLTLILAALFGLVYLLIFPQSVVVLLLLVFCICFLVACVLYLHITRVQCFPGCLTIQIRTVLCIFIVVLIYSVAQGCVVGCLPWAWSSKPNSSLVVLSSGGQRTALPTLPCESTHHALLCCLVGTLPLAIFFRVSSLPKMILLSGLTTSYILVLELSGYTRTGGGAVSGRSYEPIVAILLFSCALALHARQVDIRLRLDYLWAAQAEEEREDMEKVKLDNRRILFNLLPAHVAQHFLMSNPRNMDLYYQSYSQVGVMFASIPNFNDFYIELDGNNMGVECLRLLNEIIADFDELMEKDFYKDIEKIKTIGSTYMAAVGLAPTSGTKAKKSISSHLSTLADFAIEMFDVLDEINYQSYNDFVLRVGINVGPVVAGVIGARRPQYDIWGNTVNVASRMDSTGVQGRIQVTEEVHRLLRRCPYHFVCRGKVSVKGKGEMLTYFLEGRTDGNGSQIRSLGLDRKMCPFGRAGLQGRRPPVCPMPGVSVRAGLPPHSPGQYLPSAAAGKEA
T7 sequence (P51828 whole entry): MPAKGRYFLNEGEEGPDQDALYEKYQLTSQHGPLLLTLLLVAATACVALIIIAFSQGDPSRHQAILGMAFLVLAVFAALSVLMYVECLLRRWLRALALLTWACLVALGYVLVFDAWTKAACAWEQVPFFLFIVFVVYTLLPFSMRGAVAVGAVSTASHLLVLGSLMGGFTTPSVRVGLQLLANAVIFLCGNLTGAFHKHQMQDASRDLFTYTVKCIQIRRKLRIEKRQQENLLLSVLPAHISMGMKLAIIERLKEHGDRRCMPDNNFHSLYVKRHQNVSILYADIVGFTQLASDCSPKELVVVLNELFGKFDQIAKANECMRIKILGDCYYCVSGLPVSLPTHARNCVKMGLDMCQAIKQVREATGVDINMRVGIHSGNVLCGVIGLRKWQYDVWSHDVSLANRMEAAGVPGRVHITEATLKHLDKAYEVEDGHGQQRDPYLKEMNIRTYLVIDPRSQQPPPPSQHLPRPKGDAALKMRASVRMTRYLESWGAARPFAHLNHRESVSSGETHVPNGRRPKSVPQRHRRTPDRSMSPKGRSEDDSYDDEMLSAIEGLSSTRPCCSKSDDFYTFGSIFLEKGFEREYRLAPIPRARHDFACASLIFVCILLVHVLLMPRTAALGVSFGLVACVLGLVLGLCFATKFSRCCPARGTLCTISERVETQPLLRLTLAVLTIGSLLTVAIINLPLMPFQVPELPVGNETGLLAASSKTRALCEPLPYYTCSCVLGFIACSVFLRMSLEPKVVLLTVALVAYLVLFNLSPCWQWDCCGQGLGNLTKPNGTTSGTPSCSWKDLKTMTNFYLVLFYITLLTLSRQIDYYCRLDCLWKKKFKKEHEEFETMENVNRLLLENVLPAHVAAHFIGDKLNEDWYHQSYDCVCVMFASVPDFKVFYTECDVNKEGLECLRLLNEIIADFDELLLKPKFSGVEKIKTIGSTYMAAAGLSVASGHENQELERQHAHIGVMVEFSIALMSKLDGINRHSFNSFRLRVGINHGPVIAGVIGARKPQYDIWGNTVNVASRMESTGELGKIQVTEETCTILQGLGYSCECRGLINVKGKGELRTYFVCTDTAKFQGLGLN
T7 sequence (P63092 2-394 Q227L partner): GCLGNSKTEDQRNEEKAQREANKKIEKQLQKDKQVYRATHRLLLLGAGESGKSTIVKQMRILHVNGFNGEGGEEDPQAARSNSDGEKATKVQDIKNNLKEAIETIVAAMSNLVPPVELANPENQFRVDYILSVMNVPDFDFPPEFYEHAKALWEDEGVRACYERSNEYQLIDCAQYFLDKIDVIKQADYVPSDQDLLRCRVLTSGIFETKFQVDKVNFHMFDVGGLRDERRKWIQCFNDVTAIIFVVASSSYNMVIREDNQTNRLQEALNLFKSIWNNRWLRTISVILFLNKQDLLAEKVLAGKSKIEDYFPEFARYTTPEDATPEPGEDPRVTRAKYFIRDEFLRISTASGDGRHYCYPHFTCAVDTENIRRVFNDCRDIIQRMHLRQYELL
T3 sequence (O95622 whole entry): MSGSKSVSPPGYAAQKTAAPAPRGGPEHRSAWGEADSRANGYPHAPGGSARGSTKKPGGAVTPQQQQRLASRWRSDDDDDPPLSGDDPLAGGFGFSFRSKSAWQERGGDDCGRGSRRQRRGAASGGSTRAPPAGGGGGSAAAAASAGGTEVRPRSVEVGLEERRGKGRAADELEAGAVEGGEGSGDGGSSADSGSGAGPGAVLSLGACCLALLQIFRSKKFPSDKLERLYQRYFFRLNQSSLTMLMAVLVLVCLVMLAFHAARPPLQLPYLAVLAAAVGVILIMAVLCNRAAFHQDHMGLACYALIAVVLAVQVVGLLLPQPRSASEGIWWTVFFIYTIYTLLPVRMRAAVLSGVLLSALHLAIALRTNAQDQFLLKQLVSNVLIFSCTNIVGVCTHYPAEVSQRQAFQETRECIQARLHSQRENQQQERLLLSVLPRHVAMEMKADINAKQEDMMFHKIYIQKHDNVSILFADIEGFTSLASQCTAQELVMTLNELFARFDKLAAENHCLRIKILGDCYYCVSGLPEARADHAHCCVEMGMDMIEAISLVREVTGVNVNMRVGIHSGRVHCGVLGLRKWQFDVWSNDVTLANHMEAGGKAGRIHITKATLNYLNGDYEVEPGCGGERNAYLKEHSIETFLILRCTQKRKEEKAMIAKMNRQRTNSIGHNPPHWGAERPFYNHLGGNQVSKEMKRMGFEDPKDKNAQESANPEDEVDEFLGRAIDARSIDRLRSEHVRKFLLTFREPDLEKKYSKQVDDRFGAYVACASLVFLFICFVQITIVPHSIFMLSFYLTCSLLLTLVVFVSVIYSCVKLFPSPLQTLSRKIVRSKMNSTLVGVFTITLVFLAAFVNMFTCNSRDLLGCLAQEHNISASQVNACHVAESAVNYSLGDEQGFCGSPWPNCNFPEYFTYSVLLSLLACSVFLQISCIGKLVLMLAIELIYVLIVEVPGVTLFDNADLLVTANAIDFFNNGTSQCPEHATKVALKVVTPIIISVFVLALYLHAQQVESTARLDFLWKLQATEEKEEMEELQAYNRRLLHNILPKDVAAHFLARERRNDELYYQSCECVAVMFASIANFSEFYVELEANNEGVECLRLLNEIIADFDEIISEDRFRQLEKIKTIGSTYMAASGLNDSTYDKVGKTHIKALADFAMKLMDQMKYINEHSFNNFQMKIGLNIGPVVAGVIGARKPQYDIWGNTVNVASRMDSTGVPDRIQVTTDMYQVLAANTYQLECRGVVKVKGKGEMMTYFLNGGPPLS

Molecule	mAC6 activity [%] (100% = 300nM Gsα stimulation) [1]	mAC4 activity [%] (100% = 300nM Gsα stimulation); 20µM fatty acid concentration [2]	mAC5 activity [%] (100% = 300nM Gsα stimulation) ([3]; 20µM fatty acid concentration)	Effect of lipid on 300 nM Gsα-stimulated mAC3 [4]	mAC3 activity [%] (100% = 300nM Gsα stimulation) ([4]; fatty acid 20 µM)	mAC1 activity [%] (100% = 300nM Gsα stimulation); 20µM fatty acid concentration [5]	mAC2 activity [%] (100% = 300nM Gsα stimulation); 20µM fatty acid concentration [6]	mAC7 activity [%] (100% = 300nM Gsα stimulation); 20µM fatty acid concentration [7]	EC50 [8] [µM]	mAC9 activity (%);(100% = Gsα stimulation) stimulated by 300nM Gsα ([8]; 3 µM fatty acid)	mAC9 activity (%);(100% = Gsα stimulation) stimulated by 300nM Gsα ([8]; 6 µM fatty acid)	mAC9 activity [%] (100% = 300nM Gsα stimulation); 20µM fatty acid concentration ([8]; 20 µM fatty acid)	other results
CCCCCCCCCCCCCCCC(=O)O [Palmitic acid, Palmitic (hexadecanoic) acid]	91% and 114% and 61% and 106%	76% and 92% and 77% and 101%	123% and 77% and 97%	less efficacious	279% and 263% and 138% and 341% and 182% and 165% and 224% and 164% and 153% and 126% and 243%	93% and 87% and 105%	108% and 97%	106% and 127% and 193% and 124%	8.6	–	–	–	mAC5 activity [%] (100% = 300nM Gsα stimulation) ([3]; fatty acid 0.5 µM, individual experiments): 100%; mAC5 activity [%] (100% = 300nM Gsα stimulation) ([3]; fatty acid 1 µM, individual experiments): 71% and 83% and 111%; mAC5 activity [%] (100% = 300nM Gsα stimulation) ([3]; fatty acid 3 µM, individual experiments): 66% and 80% and 162%; mAC5 activity [%] (100% = 300nM Gsα stimulation) ([3]; fatty acid 6 µM, individual experiments): 50% and 108% and 125%; mAC5 activity [%] (100% = 300nM Gsα stimulation) ([3]; fatty acid 10 µM, individual experiments): 57% and 89% and 94% and 103%; mAC5 activity [%] (100% = 300nM Gsα stimulation) ([3]; fatty acid 20 µM, individual experiments): 123% (2×) and 77% and 97%; Effect of lipid on 300 nM Gsα-stimulated mAC3 ([4]; listed as palmitic acid): twofold; EC50 [4, 9]: 6.4 µM; mAC3 activity [%] (100% = 300nM Gsα stimulation) ([4]; fatty acid 0.5 µM): 100%; mAC3 activity [%] (100% = 300nM Gsα stimulation) ([4]; fatty acid 1 µM): 166% and 108% and 118% (2×) and 87% and 83% and 122%; mAC3 activity [%] (100% = 300nM Gsα stimulation) ([4]; fatty acid 3 µM): 122% and 126% and 125% and 136% and 114% and 107% and 116%; mAC3 activity [%] (100% = 300nM Gsα stimulation) ([4]; fatty acid 6 µM): 107% and 145% and 118% and 129% and 73% and 158% and 259%; mAC3 activity [%] (100% = 300nM Gsα stimulation) ([4]; fatty acid 10 µM): 188% and 338% and 172% and 339% and 112% and 94% and 165% and 197% and 126% and 128% and 237%; mAC9 activity (%);(100% = Gsα stimulation) stimulated by 300nM Gsα ([8]; 10 µM fatty acid): 258% and 146% and 141% and 173% and 189% and 161% and 157%; mAC9 activity (%);(100% = Gsα stimulation) stimulated by 300nM Gsα ([8]; 20 µM fatty acid): 184%
CC/C=C\C/C=C\C/C=C\CCCCCCCC(=O)O [Linolenic acid, Linolenic ((9Z,12Z,15Z)-octadecatrienoic) acid]	103% and 104%	62% and 65% and 86%	79% and 81%	less efficacious	159% and 177% and 241% and 105% and 288% and 273%	63% and 90%	99% and 105%	–	–	144% and 110% and 75%	125% and 149% and 124% and 119% and 96%	–	–
CCCCCCCC/C=C/CCCCCCCC(=O)O [Elaidic acid, Elaidic ((9E)-octadecenoic) acid]	101% and 97%	130% and 156% and 151%	–	efficient enhancers	437% and 276% and 279% and 778% and 673%	72% and 100%	131%	–	5	154% and 261% and 166% and 178%	346% and 329% and 316% and 303% and 243%	–	EC50 [7, 9]: 9.7 µM; activity at 0.3 µM ([7]; read-out: mAC7 activity (%);(100% = Gsα stimulation) stimulated by 300nM Gsα, Elaidic acid 0.3 µM): 100%
CC/C=C\C/C=C\C/C=C\C/C=C\C/C=C\CCCC(=O)O [EPA, Eicosapentaenoic ((5Z,8Z,11Z,14Z,17Z)-eicosapentaenoic) acid]	112% and 108%	–	101% and 83%	less efficacious	169% and 200% and 266% and 160%	99% and 107% and 86% and 87%	102% and 159%	113% and 166%	–	–	–	–	Effect of lipid on 300 nM Gsα-stimulated mAC4 ([2]; 20 µM, in words): no effect; Effect of lipid on 300 nM Gsα-stimulated mAC1 ([5]; 20 µM, in words): no effect
Triolein	–	–	95%	–	96%	–	–	83%	–	–	–	107	–
CCCCCCCC/C=C\CCCCCCCC(=O)OC(CO)CO [2-Oleoylglycerol]	–	–	96%	–	72%	–	–	93%	–	–	–	131	–
